Source: patent US10829520B2, “Beta-hairpin peptidomimetics” (POLYPHOR AG, priority 2015, dated 2020)
Read-outs that look alike come from different tables or passages of the source. Where a SMILES comes first, the peptide text is derived from it. Bridges are numbered along the chain shown (N, C = ends). Roman numbers before positions name the chains, in order. [ ]: non-standard residue; d: D form. Tle = CC(C)(C)[C@H](N)C(=O)O; dDab = NCC[C@@H](N)C(=O)O; Nle = CCCC[C@H](N)C(=O)O; Orn = NCCC[C@H](N)C(=O)O; Dab = NCC[C@H](N)C(=O)O; Dap = NC[C@H](N)C(=O)O

Legend:
Assay type in all cases: cell-based
[1] = tested on: Acinetobacter baumannii 872842
[2] = tested on: Acinetobacter baumannii DSM 30008
Summary of the method: (§1)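 CLSI broth microdilution; MH-II (cation-adjusted) + 0.002% P-80; ~10^6 CFU/mL inoculum; peptide two-fold serial dilutions; 18-20 h, 35° C; MIC = no visible growth, μg/mL.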

[3] = tested on: Escherichia coli 926415
[4] = tested on: Escherichia coli ATCC 25922
Summary of the method: as §1

[5] = tested on: Klebsiella pneumoniae 968733
[6] = tested on: Klebsiella pneumoniae SSI #3010
Summary of the method: as §1

[7] = tested on: Pseudomonas aeruginosa ATCC 27853
Summary of the method: as §1

[8] = tested on: human red blood cells (hRBC); assay: Hemolysis of human red blood cells
Summary of the method: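 Each peptide was tested at a single concentration, 100 μg/mL. Erythrocytes (20% v/v) were incubated 1 h at 37° C. under shaking at 300 rpm, centrifuged, and released hemoglobin measured at OD540. Controls were PBS containing 0.001% acetic acid (0%) and Triton X-100 (100%).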

[9] = red cells of human, 1 h, 100 μg/mL
[10] = clinical isolate, Mueller-Hinton II broth, P-80 0.002% present

SMILES	Acinetobacter baumannii 872842 MIC [1]; 872842 [µg/mL]	Acinetobacter baumannii DSM 30008 MIC ([2]; DSM 30008) [µg/mL]	Escherichia coli 926415 MIC [3]; 926415 [µg/mL]	Escherichia coli ATCC 25922 MIC ([4]; ATCC 25922) [µg/mL]	Klebsiella pneumoniae 968733 MIC [5]; 968733 [µg/mL]	Klebsiella pneumoniae SSI #3010 MIC ([6]; SSI #3010) [µg/mL]	Pseudomonas aeruginosa ATCC 27853 MIC ([7]; ATCC 27853) [µg/mL]	Hemolysis at 100 μg/mL ([8]; red cells of human, 1 h, 100) [%]	Hemolysis at 100 μg/mL [8, 9] [%]	Acinetobacter baumannii 872842 MIC [1, 10] [µg/mL]	Acinetobacter baumannii DSM 30008 MIC ([2]; Mueller-Hinton II broth) [µg/mL]	Escherichia coli 926415 MIC [3, 10] [µg/mL]	Escherichia coli ATCC 25922 MIC ([4]; Mueller-Hinton II broth) [µg/mL]	Klebsiella pneumoniae 968733 MIC [5, 10] [µg/mL]	Klebsiella pneumoniae SSI #3010 MIC ([6]; Mueller-Hinton II broth) [µg/mL]	Pseudomonas aeruginosa ATCC 27853 MIC ([7]; Mueller-Hinton II broth) [µg/mL]	Hemolysis at 100 μg/mL ([8]; 100 μg/mL, 20% hRBC, 1 h at 37° C.) [%]
CCCC[C@@H]1NC(=O)[C@@H]2CCCN2C(=O)[C@H]2CCCN2C(=O)[C@H](CO)NC(=O)[C@H](C)NC(=O)[C@H](C(C)(C)C)NC(=O)[C@H](CCN)NC(=O)[C@H](Cc2c[nH]c3ccccc23)NC(=O)[C@H](CCC(=O)N[C@@H](CCN)C(=O)N[C@H](C(=O)N[C@@H](CCN)C(=O)N[C@H]2CCNC(=O)[C@H]([C@@H](C)O)NC(=O)[C@H](CCN)NC(=O)[C@H](CCN)NC(=O)[C@H](CC(C)C)NC(=O)[C@@H](Cc3ccccc3)NC(=O)[C@H](CCN)NC2=O)[C@@H](C)O)NC(=O)[C@@H](CCN)NC(=O)[C@H](CCCN)NC(=O)[C@H](CCN)NC(=O)[C@H](Cc2ccc(O)cc2)NC(=O)[C@H](CO)NC1=O [Ex. 10] (I: cyclo([Nle]SY[Dab][Orn][dDab]EW[Dab][Tle]AS[dP]P) / II: [Dab]T[Dab][Dab][Dab][dF]L[Dab][Dab]T; amide I:7-II:N; lactam II:4-II:C)	1	1	0.5	0.125	2	0.25	0.5	1	–	–	–	–	–	–	–	–	–
CCCC[C@@H]1NC(=O)[C@@H]2CCCN2C(=O)[C@H]2CCCN2C(=O)[C@H](CO)NC(=O)[C@H](C)NC(=O)[C@H](C(C)(C)C)NC(=O)[C@@H](NC(=O)[C@H](Cc2c[nH]c3ccccc23)NC(C)=O)CSSC[C@@H](C(=O)N[C@@H](CCN)C(=O)N[C@H](C(=O)N[C@@H](CCN)C(=O)N[C@H]2CCNC(=O)[C@H]([C@@H](C)O)NC(=O)[C@H](CCN)NC(=O)[C@H](CCN)NC(=O)[C@H](CC(C)C)NC(=O)[C@@H](Cc3ccccc3)NC(=O)[C@H](CCN)NC2=O)[C@@H](C)O)NC(=O)[C@H](Cc2ccc(O)cc2)NC(=O)[C@H](CO)NC1=O [Ex. 12] (Ac-WC[Tle]AS[dP]P[Nle]SYC[Dab]T[Dab][Dab][Dab][dF]L[Dab][Dab]T; disulfide 2-11; lactam 15-C)	0.125	0.0625	0.125	0.125	0.5	0.125	0.5	–	<1	–	–	–	–	–	–	–	–
CCCC[C@@H]1NC(=O)[C@@H]2CCCN2C(=O)[C@H]2CCCN2C(=O)[C@H](CO)NC(=O)[C@H](C)NC(=O)[C@H](C(C)(C)C)NC(=O)[C@@H](NC(=O)[C@H](Cc2c[nH]c3ccccc23)NC(C)=O)CSSC[C@@H](C(=O)N[C@@H](CCCN)C(=O)N[C@H](C(=O)N[C@@H](CCN)C(=O)N[C@H]2CCNC(=O)[C@H]([C@@H](C)O)NC(=O)[C@H](CCN)NC(=O)[C@H](CCN)NC(=O)[C@H](CC(C)C)NC(=O)[C@@H](Cc3ccccc3)NC(=O)[C@H](CCN)NC2=O)[C@@H](C)O)NC(=O)[C@H](Cc2ccc(O)cc2)NC(=O)[C@H](CO)NC1=O [Ex. 13] (Ac-WC[Tle]AS[dP]P[Nle]SYC[Orn]T[Dab][Dab][Dab][dF]L[Dab][Dab]T; disulfide 2-11; lactam 15-C)	0.25	0.125	0.5	0.5	1	0.5	0.5	–	1	–	–	–	–	–	–	–	–
CCCC[C@@H]1NC(=O)[C@@H]2CCCN2C(=O)[C@H]2CCCN2C(=O)[C@H](CO)NC(=O)[C@H](C)NC(=O)[C@H](C(C)(C)C)NC(=O)[C@@H](NC(=O)[C@H](Cc2c[nH]c3ccccc23)NC(C)=O)CCC(=O)NCC[C@@H](C(=O)N[C@@H](CCN)C(=O)N[C@H](C(=O)N[C@@H](CCN)C(=O)N[C@H]2CCNC(=O)[C@H]([C@@H](C)O)NC(=O)[C@H](CCN)NC(=O)[C@H](CCN)NC(=O)[C@H](CC(C)C)NC(=O)[C@@H](Cc3ccccc3)NC(=O)[C@H](CCN)NC2=O)[C@@H](C)O)NC(=O)[C@H](Cc2ccc(O)cc2)NC(=O)[C@H](CO)NC1=O [Ex. 14] (Ac-WE[Tle]AS[dP]P[Nle]SY[Dab][Dab]T[Dab][Dab][Dab][dF]L[Dab][Dab]T; lactam 2-11, 15-C)	1	0.5	4	0.5	8	1	1	<1	–	–	–	–	–	–	–	–	–
CCCC[C@@H]1NC(=O)[C@@H]2CCCN2C(=O)[C@H]2CCCN2C(=O)[C@H](CO)NC(=O)[C@H](C)NC(=O)[C@H](C(C)(C)C)NC(=O)[C@@H](NC(=O)[C@@H](N)Cc2c[nH]c3ccccc23)CSSC[C@@H](C(=O)N[C@@H](CCN)C(=O)N[C@H](C(=O)N[C@@H](CCN)C(=O)N[C@H]2CCNC(=O)[C@H]([C@@H](C)O)NC(=O)[C@H](CCN)NC(=O)[C@H](CCN)NC(=O)[C@H](CC(C)C)NC(=O)[C@@H](CC(C)C)NC(=O)[C@H](CCN)NC2=O)[C@@H](C)O)NC(=O)[C@H](Cc2ccc(O)cc2)NC(=O)[C@H](CO)NC1=O [Ex. 15] (H-WC[Tle]AS[dP]P[Nle]SYC[Dab]T[Dab][Dab][Dab][dL]L[Dab][Dab]T; disulfide 2-11; lactam 15-C)	0.25	0.5	0.125	0.125	2	0.25	1	–	1	–	–	–	–	–	–	–	–
CCCC[C@@H]1NC(=O)[C@@H]2CCCN2C(=O)[C@H]2CCCN2C(=O)[C@H](CO)NC(=O)[C@H](C)NC(=O)[C@H](C(C)(C)C)NC(=O)[C@@H](NC(=O)[C@@H](N)Cc2c[nH]c3ccccc23)CSSC[C@@H](C(=O)N[C@@H](CCN)C(=O)N[C@H](C(=O)N[C@@H](CN)C(=O)N[C@H]2CCNC(=O)[C@H]([C@@H](C)O)NC(=O)[C@H](CCN)NC(=O)[C@H](CCN)NC(=O)[C@H](CC(C)C)NC(=O)[C@@H](Cc3ccccc3)NC(=O)[C@H](CCN)NC2=O)[C@@H](C)O)NC(=O)[C@H](Cc2ccc(O)cc2)NC(=O)[C@H](CO)NC1=O [Ex. 16] (H-WC[Tle]AS[dP]P[Nle]SYC[Dab]T[Dap][Dab][Dab][dF]L[Dab][Dab]T; disulfide 2-11; lactam 15-C)	0.25	0.25	0.125	0.5	0.375	0.25	0.25	–	3	–	–	–	–	–	–	–	–
CCCC[C@@H]1NC(=O)[C@@H]2CCCN2C(=O)[C@@H](C)NC(=O)[C@H](CO)NC(=O)[C@H](C)NC(=O)[C@H](C(C)(C)C)NC(=O)[C@@H](NC(=O)[C@H](Cc2c[nH]c3ccccc23)NC(C)=O)CSSC[C@@H](C(=O)N[C@@H](CCN)C(=O)N[C@H](C(=O)N[C@@H](CCN)C(=O)N[C@H]2CCNC(=O)[C@H]([C@@H](C)O)NC(=O)[C@H](CCN)NC(=O)[C@H](CCN)NC(=O)[C@H](CC(C)C)NC(=O)[C@@H](Cc3ccccc3)NC(=O)[C@H](CCN)NC2=O)[C@@H](C)O)NC(=O)[C@H](Cc2ccc(O)cc2)NC(=O)[C@H](CO)NC1=O [Ex. 17] (Ac-WC[Tle]AS[dA]P[Nle]SYC[Dab]T[Dab][Dab][Dab][dF]L[Dab][Dab]T; disulfide 2-11; lactam 15-C)	0.25	0.5	1.5	0.25	0.5	0.5	0.5	–	3	–	–	–	–	–	–	–	–
CCCC[C@@H]1NC(=O)[C@@H]2CCCN2C(=O)[C@H]2CCCN2C(=O)[C@H]([C@@H](C)O)NC(=O)[C@H](CO)NC(=O)[C@H](C(C)(C)C)NC(=O)[C@@H](NC(=O)[C@H](Cc2c[nH]c3ccccc23)NC(C)=O)CSSC[C@@H](C(=O)N[C@@H](CCN)C(=O)N[C@H](C(=O)N[C@@H](CCN)C(=O)N[C@H]2CCNC(=O)[C@H]([C@@H](C)O)NC(=O)[C@H](CCN)NC(=O)[C@H](CCN)NC(=O)[C@H](CC(C)C)NC(=O)[C@@H](Cc3ccccc3)NC(=O)[C@H](CCN)NC2=O)[C@@H](C)O)NC(=O)[C@H](Cc2ccc(O)cc2)NC(=O)[C@H](C)NC1=O [Ex. 18] (Ac-WC[Tle]ST[dP]P[Nle]AYC[Dab]T[Dab][Dab][Dab][dF]L[Dab][Dab]T; disulfide 2-11; lactam 15-C)	–	–	–	–	–	–	–	–	–	1	0.25	0.5	0.125	0.5	2	0.5	6
